The results in this text go back to patent US7138406B2, “Modulators of the glucocorticoid receptor” (Pfizer, Inc., priority 2002, dated 2006).

In the first data set the test system is MMP-1 (Matrix Metalloproteinase-1) production. Description: glucocorticoid inhibition of IL-1 induced MMP-1 production in human chondrosarcoma cells. Type of data set: cell-based. Conditions: SW1353 human chondrosarcoma cells, 20 ng/ml IL-1 beta, 72 hours after IL-1 addition, ELISA; read-out: IC50, inhibitor of MMP1 expression. As to the method: (§1) This assay, the glucocorticoid inhibition of IL-1 (Interleukin-1) induced MMP-1 (Matrix Metalloproteinase-1) and IL-8 (Interleukin-8) production in human chondrosarcoma cells, is conducted as follows: SW1353 human chondrosarcoma cells (obtained from ATCC) from passage 12 through passage 19 are used in a 96 well format assay. Cells are plated at confluence into 96 well plates in DMEM (Dulbecco's Modified Eagle Medium) with 10% fetal bovine serum and incubated at 37° C., 5% CO2. After 24 hours, serum containing media is removed and replaced with 200 ul/well DMEM containing 1 mg/L insulin, 2 g/L lactalbumin hydrosylate, and 0.5 mg/L ascorbic acid and returned to incubation at 37° C., 5% CO2. […] IL-8 production is assessed using the Quantikine human IL-8 ELISA kit from R&D Systems (D8050) on samples diluted 60-fold in RD5P Calibrator Diluent, following the manufacturer's protocol. The percent of the average IL-1 control is determined for the average of each of the triplicate samples following subtraction of the average signal from untreated cells. IC50's are determined from log linear plots of the percent of control versus the concentration of inhibitor. […] MMP-1 production is assessed via the Bio-Trak MMP-1 ELISA kit from Amersham (RPN2610) on 100 ul of neat sample following the manufacturer's protocol. […]
For orientation: IC50 means the concentration needed to halve the response being measured. On to `C[C@@H]1C[C@H]2[C@@H]3CCC4=CC(=O)C=C[C@]4(C)[C@@]3(F)[C@@H](O)C[C@]2(C)[C@@]1(O)C(=O)CO` [Dexamethasone, (11β,16α)-9-fluoro-11,17,21-trihydroxy-16-methylpregna-1,4-diene-3,20-dione], for which the IC50 is 5 nM.

System in the next data set: not given
Test: not given
Details: not given
Broadly, the melting point is the temperature, or range, at which the solid turns liquid. As to `CC[C@@]12C[C@](O)(C(C)C)[C@](O)(c3ccccc3)C[C@H]1CCc1cc(O)ccc12` [Example 49], the melting point was 236 to 237 °C.
Still for that read-out and setting: to `CC[C@@]12C[C@H](O)[C@](O)(c3c(F)cccc3F)C[C@H]1CCc1cc(OCc3cccnc3C)ccc12` (hydrate or solvate) [Example 56, (2R,3S,4aR,10aR)-2-(2,6-Difluoro-phenyl)-4a-ethyl-7-(2-methyl-pyridin-3-ylmethoxy)-1,2,3,4,4a,9,10,10a-octahydro-phenanthrene-2,3-diol] belongs 80 to 83 °C; to `CC[C@@]12C[C@@](C)(O)[C@](O)(c3ccccc3)C[C@H]1CCc1cc(OCc3nnn[nH]3)ccc12` [Example 76, (2R,3R,4aR,10aR)-4a-Ethyl-3-methyl-2-phenyl-7-(1H-tetrazol-5-ylmethoxy)-1,2,3,4,4a,9,10,10a-octahydro-phenanthrene-2,3-diol], 108 to 110 °C; to `CC[C@@]12C[C@H](N)[C@](O)(c3ccccc3)C[C@H]1CCc1cc(O)ccc12` [Example 41, (2R,3S,4aR,10aR)-3-Amino-4a-ethyl-2-phenyl-1,2,3,4,4a,9,10,10a-octahydro-phenanthrene-2,7-diol], 209 to 210 °C.
The same measure, in the same setting: to `CC[C@@]12C[C@@](C)(O)[C@](O)(c3ccccc3)C[C@H]1CCc1cc(OCC(=O)O)ccc12` [Example 70, (4bR,6R,7R,8aR)-(4b-Ethyl-6,7-dihydroxy-6-methyl-7-phenyl-4b,5,6,7,8,8a,9,10-octahydro-phenanthren-2-yloxy)-acetic acid] belongs 190 to 191 °C; to `CC[C@@]12C[C@H](O)[C@](O)(c3c(F)cccc3F)C[C@H]1CCc1cc(O)ccc12` [Example 35, (2R,3S,4aR,10aR)-2-(2,6-difluorophenyl)-4a-ethyl-1,2,3,4,4a,9,10,10a-octahydrophenanthrene-2,3,7-triol], 198 to 200 °C; to `CC[C@@]12C[C@@](C)(O)[C@](O)(c3ccccc3)C[C@H]1CCc1cc(OCC(C)(C)O)ccc12` [Example 73, (2R,3R,4aR,10aR)-4a-Ethyl-7-(2-hydroxy-2-methyl-propoxy)-3-methyl-2-phenyl-1,2,3,4,4a,9,10,10a-octahydro-phenanthrene-2,3-diol], 190 to 193 °C.

Another data set concerns IL-8 (Interleukin-8) production. Description: glucocorticoid inhibition of IL-1 induced IL-8 production in human chondrosarcoma cells. Type of data set: cell-based. Conditions: SW1353 human chondrosarcoma cells, 20 ng/ml IL-1 beta, 24 hours after addition of IL-1, ELISA; read-out: IC50, inhibitor of IL-8 expression. As to the method: as §1
For orientation: ELISA stands for enzyme-linked immunosorbent assay.
As to `C[C@@H]1C[C@H]2[C@@H]3CCC4=CC(=O)C=C[C@]4(C)[C@@]3(F)[C@@H](O)C[C@]2(C)[C@@]1(O)C(=O)CO` [Dexamethasone, (11β,16α)-9-fluoro-11,17,21-trihydroxy-16-methylpregna-1,4-diene-3,20-dione], the IC50 stood at 5 nM.
